Reference: patent publication US8962843B2, “1,3,4-oxadiazole and 1,3,4-thiadiazole beta-lactamase inhibitors” (priority 2012, dated 2015)
Structures can show the parent of a compound that is named as a salt.

What follows are compounds tested on bacterial strains that express the class D cephalosporinase OXA-15 (assay: Standard BLI potentiation MIC / synergy MIC assays, strains expressing OXA-15). Conditions: in combination with a β-lactam; comparator Avibactam (CCC).
Assay type: cell-based, E. coli
Method: The experimental protocol was performed according to Clinical and Laboratory Standards Institute (CLSI) guidelines with modifications as described below (CLSI guidelines can be derived from the CLSI document M07-A9 published in January 2012: “Methods for Dilution Antimicrobial Susceptibility Tests for Bacteria That Grow Aerobically; Approved Standard-Ninth Edition”).
To prepare for MIC testing, frozen glycerol stocks of clinical isolates (Klebsiella pneumoniae, Eschericia coli, Enterobacter spp, Citrobacter spp, or Pseudomonas aeruginosa) were used to streak for isolated colonies on rich, non-selective, tryptic soy agar containing 5% sheep's blood (TSAB). Frozen glycerol stocks of laboratory engineered, isogenic E. coli strains, which contain cloned β-lactamase expressing plasmids were used to streak for isolated colonies on rich, selective LB agar supplemented with 25 μg/mL tetracycline to maintain the plasmid. All strains were incubated at 37° C. for 18-24 hrs.
On the day of testing, primary cultures were started by scraping off 5-10 colonies from the TSAB plates containing clinical strains or the tetracycline supplemented LB plates containing engineered strains. The clinical strain material was suspended in ˜5 mL of cation adjusted Mueller Hinton Broth (CAMHB) in 14 mL culture tubes. The engineered strain material was suspended in CAMHB (supplemented with 25 μg/mL tetracycline) in 14 mL culture tubes. All strains were incubated at 37° C. with aeration (200 rpm) for ˜2 hrs until the optical density at 600 nm (OD600) was >0.1.
The two compound components of the assay were each diluted in CAMHB and added to the 96-well broth microdilution assay plates. 50 μL of the β-lactam was added to each well of the assay plate in 2-fold dilutions with final concentrations ranging from 128 to 0.13 μg/mL. 25 μL of the BLI compound was added to all wells in the broth microdilution plates at a final concentration of 4 μg/mL. Inoculum cultures were prepared by standardizing the primary cultures to OD600=0.1 and then adding 20 μL of the adjusted primary culture per 1 mL CAMHB for clinical strains or CAMHB (supplemented with tetracycline at 100 μg/mL) for engineered strains, so that the final inoculum density was ˜10^5 colony forming units per milliliter. Diluted inoculum cultures were used to inoculate 25 μl, per well in 96-well broth microdilution assay plates. The final volume of each well was 100 μL and contained a β-lactam at different concentrations, a BLlcompound at 4 μg/mL concentration, the bacterial culture at an OD600 of approximately 0.001 and when necessary tetracycline at 25 μg/mL.
Plates were incubated for 18-20 hours at 37° C. with aeration (200 rpm). Following incubation, growth was confirmed visually placing plates over a viewing apparatus (stand with a mirror underneath) and then OD600 was measured using a SpectraMax 340PC384 plate reader (Molecular Devices, Sunnyvale, Calif.). Growth was defined as turbidity that could be detected with the naked eye or achieving minimum OD600 of 0.1. MIC values were defined as the lowest concentration producing no visible turbidity.
The synergy MIC (sMIC) assay determines the concentration of the BLI required to potentiate the activity of a fixed concentration of a β-lactam antibiotic against β-lactamase producing bacterial strains. The experimental protocol was performed according to Clinical and Laboratory Standards Institute (CLSI) guidelines with modifications as described below (CLSI guidelines can be derived from the CLSI document M07-A9 published in January 2012: “Methods for Dilution Antimicrobial Susceptibility Tests for Bacteria That Grow Aerobically; Approved Standard-Ninth Edition”). […]

Compound | activity against bacterial strains that express the class D cephalosporinase OXA-15, compared with Avibactam
N=C(N)NCc1nnc([C@@H]2CC[C@@H]3CN2C(=O)N3OS(=O)(=O)O)o1 [Compound 704, (2S,5R)-2-(5-(guanidinomethyl)-1,3,4-oxadiazol-2-yl)-7-oxo-1,6-diazabicyclo[3.2.1]octan-6-yl hydrogen sulfate] | more active than Avibactam
Nc1nnc([C@@H]2CC[C@@H]3CN2C(=O)N3OS(=O)(=O)O)o1 [Compound 707, (2S,5R)-2-(5-amino-1,3,4-oxadiazol-2-yl)-7-oxo-1,6-diazabicyclo[3.2.1]octan-6-yl hydrogen sulfate] | more active than Avibactam
N=C(N)N1CCC(c2nnc([C@@H]3CC[C@@H]4CN3C(=O)N4OS(=O)(=O)O)o2)CC1 [Compound 712, (2S,5R)-2-(5-(1-carbamimidoylpiperidin-4-yl)-1,3,4-oxadiazol-2-yl)-7-oxo-1,6-diazabicyclo[3.2.1]octan-6-yl hydrogen sulfate] | more active than Avibactam
O=C1N2C[C@@H](CC[C@H]2c2nnc(N3CCNCC3)o2)N1OS(=O)(=O)O [Compound 713, (2S,5R)-7-oxo-2-(5-(piperazin-1-yl)-1,3,4-oxadiazol-2-yl)-1,6-diazabicyclo[3.2.1]octan-6-yl hydrogen sulfate] | more active than Avibactam
N=C(N)NCCCc1nnc([C@@H]2CC[C@@H]3CN2C(=O)N3OS(=O)(=O)O)o1 [Compound 714, (2S,5R)-2-(5-(3-guanidinopropyl)-1,3,4-oxadiazol-2-yl)-7-oxo-1,6-diazabicyclo[3.2.1]octan-6-yl hydrogen sulfate] | more active than Avibactam
NCC(O)c1nnc([C@@H]2CC[C@@H]3CN2C(=O)N3OS(=O)(=O)O)o1 (stereo partly drawn) [Compound 715, (2S,5R)-2-(5-(2-amino-1-hydroxyethyl)-1,3,4-oxadiazol-2-yl)-7-oxo-1,6-diazabicyclo[3.2.1]octan-6-yl hydrogen sulfate] | more active than Avibactam
NCCNCCc1nnc([C@@H]2CC[C@@H]3CN2C(=O)N3OS(=O)(=O)O)o1 [Compound 716, (2S,5R)-2-(5-(2-((2-aminoethyl)amino)ethyl)-1,3,4-oxadiazol-2-yl)-7-oxo-1,6-diazabicyclo[3.2.1]octan-6-yl hydrogen sulfate] | more active than Avibactam
NCC(N)c1nnc([C@@H]2CC[C@@H]3CN2C(=O)N3OS(=O)(=O)O)o1 (stereo partly drawn) [Compound 717, (2S,5R)-2-(5-(1,2-diaminoethyl)-1,3,4-oxadiazol-2-yl)-7-oxo-1,6-diazabicyclo[3.2.1]octan-6-yl hydrogen sulfate] | more active than Avibactam
O=C1N2C[C@@H](CC[C@H]2c2nnc(C3CCNCC3)s2)N1OS(=O)(=O)O [Compound 719, (2S,5R)-7-oxo-2-(5-(piperidin-4-yl)-1,3,4-thiadiazol-2-yl)-1,6-diazabicyclo[3.2.1]octan-6-yl hydrogen sulfate] | more active than Avibactam
O=C1N2C[C@@H](CC[C@H]2c2nnc(CC3CNC3)o2)N1OS(=O)(=O)O [Compound 725, (2S,5R)-2-(5-(azetidin-3-ylmethyl)-1,3,4-oxadiazol-2-yl)-7-oxo-1,6-diazabicyclo[3.2.1]octan-6-yl hydrogen sulfate] | more active than Avibactam
NCC(O)Cc1nnc([C@@H]2CC[C@@H]3CN2C(=O)N3OS(=O)(=O)O)o1 (stereo partly drawn) [Compound 733, (2S,5R)-2-(5-(3-amino-2-hydroxypropyl)-1,3,4-oxadiazol-2-yl)-7-oxo-1,6-diazabicyclo[3.2.1]octan-6-yl hydrogen sulfate] | more active than Avibactam
N=C(N)N[C@H]1C[C@H](c2nnc([C@@H]3CC[C@@H]4CN3C(=O)N4OS(=O)(=O)O)o2)C1 [Compound 748, (2S,5R)-2-(5-((1r,3S)-3-guanidinocyclobutyl)-1,3,4-oxadiazol-2-yl)-7-oxo-1,6-diazabicyclo[3.2.1]octan-6-yl hydrogen sulfate] | more active than Avibactam
N[C@H]1C[C@H](NCc2nnc([C@@H]3CC[C@@H]4CN3C(=O)N4OS(=O)(=O)O)o2)C1 [Compound 757, (2S,5R)-2-(5-((((1r,3S)-3-aminocyclobutyl)amino)methyl)-1,3,4-oxadiazol-2-yl)-7-oxo-1,6-diazabicyclo[3.2.1]octan-6-yl hydrogen sulfate] | more active than Avibactam
O=C1N2C[C@@H](CC[C@H]2c2nnc(CNC3CCNCC3)o2)N1OS(=O)(=O)O [Compound 769, (2S,5R)-7-oxo-2-(5-((piperidin-4-ylamino)methyl)-1,3,4-oxadiazol-2-yl)-1,6-diazabicyclo[3.2.1]octan-6-yl hydrogen sulfate] | more active than Avibactam
NC1CCN(c2nnc([C@@H]3CC[C@@H]4CN3C(=O)N4OS(=O)(=O)O)o2)CC1 [Compound 773, (2S,5R)-2-(5-(4-aminopiperidin-1-yl)-1,3,4-oxadiazol-2-yl)-7-oxo-1,6-diazabicyclo[3.2.1]octan-6-yl hydrogen sulfate] | more active than Avibactam
O=C1N2C[C@@H](CC[C@H]2c2nnc([C@@H]3CNCCN3)o2)N1OS(=O)(=O)O [Compound 778, (2S,5R)-7-oxo-2-(5((S)-piperazin-2-yl)-1,3,4-oxadiazol-2-yl)-1,6-diazabicyclo[3.2.1]octan-6-yl hydrogen sulfate] | more active than Avibactam
N[C@H]1CC[C@@H](c2nnc([C@@H]3CC[C@@H]4CN3C(=O)N4OS(=O)(=O)O)o2)CC1 [Compound 780, (2S,5R)-2-(5-((1s,4R)-4-aminocyclohexyl)-1,3,4-oxadiazol-2-yl)-7-oxo-1,6-diazabicyclo[3.2.1]octan-6-yl hydrogen sulfate] | more active than Avibactam
N[C@H]1CC[C@H](c2nnc([C@@H]3CC[C@@H]4CN3C(=O)N4OS(=O)(=O)O)o2)CC1 [Compound 781, (2S,5R)-2-(5-((1r,4S)-4-aminocyclohexyl)-1,3,4-oxadiazol-2-yl)-7-oxo-1,6-diazabicyclo[3.2.1]octan-6-yl hydrogen sulfate] | more active than Avibactam
O=C1N2C[C@@H](CC[C@H]2c2nnc(CCCN3CCNCC3)o2)N1OS(=O)(=O)O [Compound 792, (2S,5R)-7-oxo-2-(5-(3-(piperazin-1-yl)propyl)-1,3,4-oxadiazol-2-yl)-1,6-diazabicyclo[3.2.1]octan-6-yl hydrogen sulfate] | more active than Avibactam
O=C1N2C[C@@H](CC[C@H]2c2nnc(N3CCNCC3)s2)N1OS(=O)(=O)O [Compound 797, (2S,5R)-7-oxo-2-(5-(piperazin-1-yl)-1,3,4-thiadiazol-2-yl)-1,6-diazabicyclo[3.2.1]octan-6-yl hydrogen sulfate] | more active than Avibactam
